# Reference: paper PMC9555642 (PLoS ONE, 2022)
# How the values were obtained:
# hERG = target: T1, hERG (Homo sapiens, UniProt Q12809); assay: Cardiovascular ion channel panel, SyncroPatch 384PE patch clamp; assay type: cell-based; settings: CHO K1 cell line, room temperature, 6 point cumulative assay
# T1 construct: expressed in transfected cells; host or cells: Chinese hamster ovary K1 cell line
# Sigma-1 receptor = target: T2, Sigma-1 receptor (Homo sapiens, UniProt Q99720); assay: Secondary pharmacology panel (Eurofins); assay type: binding
# T2 construct: purchased Eurofins Pharma Discovery Services
# T2 sequence (Q99720 whole entry, species assumed): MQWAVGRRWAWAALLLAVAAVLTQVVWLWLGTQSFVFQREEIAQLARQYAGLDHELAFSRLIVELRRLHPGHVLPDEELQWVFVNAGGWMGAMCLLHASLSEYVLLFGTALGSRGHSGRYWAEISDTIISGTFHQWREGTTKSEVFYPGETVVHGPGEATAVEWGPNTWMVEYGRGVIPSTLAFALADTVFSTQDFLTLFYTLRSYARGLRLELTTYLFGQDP
# Experimental: Second pharmacology screening was performed at Eurofins Pharma Discovery Services in a panel of 190 in vitro radioligand binding and enzyme assays covering a diverse set of enzymes, receptors, ion channels, and transporters.
# COPD HBEC ALI cultures [1] = assay: TNF challenge model in ALI, TEER and FITC-dextran permeability; assay type: cell-based, human; settings: 10 μM, four COPD donors
# [2] = test system: healthy HBEC at ALI cultures; assay: Cell velocity (Particle Image Velocimetry); assay type: cell-based, human; settings: TNF-challenged healthy HBEC, brought down to unchallenged levels, 0.0411
# Source text: For cilia beating frequency (CBF) and cell velocity measurements, donor cells of primary healthy HBECs were amplified on rat tail collagen I coated flasks and seeded on 12-mm-diameter Transwell inserts.
# Cell migration was quantified by performing Particle Image Velocimetry (PIVlab) on Matlab using multi-pass cross-correlation analysis with decreasing interrogation window size on image pairs to obtain the spatial velocity field as described previously.
# COPD HBEC ALI cultures [3] = assay: RNA analysis (qPCR), TNF challenge; assay type: cell-based, human
# Experimental: (§1) TEER and permeability were measured after seven days.
# To study transcriptional changes, RNA purification was carried out using the RNeasy Plus 96 kit (74192) (Qiagen, Venlo, The Netherlands) according to manufacturer’s protocol. The liquid was collected and frozen at –80°C until further analysis. RNA was quantified and cDNA synthesis was performed according to standard procedures using High-capacity cDNA Reverse Transcription Kit (4368813) (ThermoFisher, Waltham, MA, US). Real-time polymerase chain reaction (qPCR) was done using validated TaqMan® Gene Expression Assays (ThermoFisher, Waltham, MA, US), IL8 (Hs00174103_m1), CCL2 (Hs00234140_m1), CXCL10 (Hs00171042_m1), MMP9 (Hs00957562_m1), IL1B (Hs01555410_m1), MUC5AC (Hs01365616_m1), MUC5B (Hs00861595_m1) with TaqMan Fast Advanced Master Mix (4444557) (Applied Biosystems, Foster City, CA, US). Samples were run in triplicates and analyzed on the QuantStudio^TM 7 Flex Real-Time PCR 384-well System (ThermoFisher Waltham, MA, US). Data was normalized to the housekeeping genes GAPDH (Hs99999905_m1), and RPLP0 (Hs99999902_m1) and delta-delta CT values were plotted (fold change to DMSO).
# COPD HBEC ALI cultures [4] = assay: Cytokine release in basolateral supernatants (MSD), TNF challenge; assay type: cell-based, human; settings: 10 μM, TNF 5, 20 and 50 ng/ml, day seven
# Experimental: as §1
# To assess cytokines released, basolateral supernatants were collected on day seven and immediately frozen at -80°C until MSD analysis of IL-6, CCL2 and CXCL10. In short, U-PLEX MSD plates (Mesoscale Discovery, Rockville, Maryland, USA) were coated, washed and stored overnight. Standard curves were prepared and added in duplicates on each plate. Supernatants were thawed on ice and added to the plates, which were incubated on an orbital shaker for one hour before sulfo-tagged antibodies were added and incubated for another hour. Plates were washed, read buffer added and read on MESO SECTOR S 600 (Mesoscale Discovery, Rockville, Maryland, USA). Data was plotted as fold change to DMSO control.
# HDAC6 = target: T3, HDAC6 (Homo sapiens, UniProt Q9UBN7); assay: HDAC enzymatic activity (Eurofins); assay type: biochemical; settings: Class IIB; ACY-1083 mean of two separate measurements, Ricolinostat and Tubastatin A one measurement
# T3 sequence (Q9UBN7 1-1215): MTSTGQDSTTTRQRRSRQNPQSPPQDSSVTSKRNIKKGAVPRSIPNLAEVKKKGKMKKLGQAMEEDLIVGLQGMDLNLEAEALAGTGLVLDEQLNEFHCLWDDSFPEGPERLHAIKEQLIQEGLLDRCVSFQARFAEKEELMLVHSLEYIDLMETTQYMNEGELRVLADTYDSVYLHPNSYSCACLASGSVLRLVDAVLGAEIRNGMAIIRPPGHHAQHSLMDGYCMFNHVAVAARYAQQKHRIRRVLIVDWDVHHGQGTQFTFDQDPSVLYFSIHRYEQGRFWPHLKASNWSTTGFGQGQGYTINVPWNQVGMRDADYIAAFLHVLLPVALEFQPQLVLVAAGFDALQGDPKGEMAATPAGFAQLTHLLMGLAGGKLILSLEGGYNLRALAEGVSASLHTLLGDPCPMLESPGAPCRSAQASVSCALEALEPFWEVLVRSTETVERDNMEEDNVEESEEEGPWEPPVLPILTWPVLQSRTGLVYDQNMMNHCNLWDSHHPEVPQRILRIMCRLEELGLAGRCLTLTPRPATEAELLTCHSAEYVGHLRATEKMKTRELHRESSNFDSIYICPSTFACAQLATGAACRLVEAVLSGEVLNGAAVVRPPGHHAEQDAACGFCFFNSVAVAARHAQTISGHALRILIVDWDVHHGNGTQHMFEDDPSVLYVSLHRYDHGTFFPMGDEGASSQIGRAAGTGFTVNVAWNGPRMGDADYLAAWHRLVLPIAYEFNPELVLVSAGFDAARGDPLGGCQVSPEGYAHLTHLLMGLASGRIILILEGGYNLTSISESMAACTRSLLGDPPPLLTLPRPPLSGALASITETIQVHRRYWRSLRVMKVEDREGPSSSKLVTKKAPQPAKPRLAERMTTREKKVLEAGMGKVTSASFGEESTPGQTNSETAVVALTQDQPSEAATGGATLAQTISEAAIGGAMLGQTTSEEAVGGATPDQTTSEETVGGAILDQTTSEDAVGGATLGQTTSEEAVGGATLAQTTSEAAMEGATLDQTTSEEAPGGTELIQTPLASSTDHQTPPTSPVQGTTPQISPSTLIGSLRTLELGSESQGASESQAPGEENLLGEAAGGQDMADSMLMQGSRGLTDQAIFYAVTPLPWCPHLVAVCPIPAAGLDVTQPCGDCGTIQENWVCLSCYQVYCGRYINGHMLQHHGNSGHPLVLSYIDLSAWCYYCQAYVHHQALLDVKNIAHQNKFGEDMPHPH
# [5] = high concentrations of TNF, 8 days
# [6] = unchallenged cells and 5 ng/ml TNF
# T1 sequence (Q12809 whole entry): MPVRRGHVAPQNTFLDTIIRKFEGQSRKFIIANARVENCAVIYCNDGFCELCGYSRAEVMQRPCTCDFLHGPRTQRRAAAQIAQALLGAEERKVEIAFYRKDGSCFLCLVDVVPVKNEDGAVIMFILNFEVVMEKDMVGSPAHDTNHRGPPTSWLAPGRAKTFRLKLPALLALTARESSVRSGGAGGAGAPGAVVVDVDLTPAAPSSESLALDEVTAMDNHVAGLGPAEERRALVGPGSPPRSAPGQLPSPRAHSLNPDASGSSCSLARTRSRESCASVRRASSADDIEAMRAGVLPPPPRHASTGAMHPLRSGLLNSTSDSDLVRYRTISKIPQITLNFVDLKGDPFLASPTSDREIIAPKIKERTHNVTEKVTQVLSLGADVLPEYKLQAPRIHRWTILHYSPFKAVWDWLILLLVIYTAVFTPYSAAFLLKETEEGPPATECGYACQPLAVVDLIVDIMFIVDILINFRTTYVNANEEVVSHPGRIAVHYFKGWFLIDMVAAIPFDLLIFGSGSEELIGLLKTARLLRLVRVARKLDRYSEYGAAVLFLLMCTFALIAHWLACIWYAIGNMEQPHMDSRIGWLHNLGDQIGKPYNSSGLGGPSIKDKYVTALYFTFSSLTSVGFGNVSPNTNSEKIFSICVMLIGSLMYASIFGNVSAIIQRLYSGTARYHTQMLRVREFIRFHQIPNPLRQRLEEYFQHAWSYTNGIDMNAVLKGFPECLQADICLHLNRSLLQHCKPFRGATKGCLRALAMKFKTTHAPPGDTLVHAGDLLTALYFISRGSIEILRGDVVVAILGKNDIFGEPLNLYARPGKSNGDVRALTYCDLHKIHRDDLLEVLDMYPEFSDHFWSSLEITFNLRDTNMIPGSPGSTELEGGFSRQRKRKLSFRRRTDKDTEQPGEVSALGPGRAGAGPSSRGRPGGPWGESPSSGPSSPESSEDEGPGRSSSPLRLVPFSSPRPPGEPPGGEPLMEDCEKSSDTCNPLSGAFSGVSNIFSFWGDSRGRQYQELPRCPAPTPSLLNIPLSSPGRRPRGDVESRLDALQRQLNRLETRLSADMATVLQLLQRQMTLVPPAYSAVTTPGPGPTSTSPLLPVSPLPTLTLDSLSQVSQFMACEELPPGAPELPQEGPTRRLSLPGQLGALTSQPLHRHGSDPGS
substance,measurement,setting,value
ACY-1083,activity on hERG,hERG,> 30 µM
same,IC50,Sigma-1 receptor,17 µM
same,TEER vs DMSO control,"COPD HBEC ALI cultures [1]; TNF 0, 5, 20 and 50 ng/mL, after seven days",higher TEER at all concentrations of TNF
same,paracellular permeability vs DMSO control,"COPD HBEC ALI cultures [1]; TNF 5, 20 and 50 ng/mL","lower permeability at 5, 20 and 50 ng/mL TNF"
same,cellular velocity,[2],counteract this increase
same,CXCL10 transcripts,COPD HBEC ALI cultures [3]; [5],significantly reduced
same,IL1B transcripts,COPD HBEC ALI cultures [3]; [5],significantly reduced
same,IL6 transcripts,COPD HBEC ALI cultures [3]; [5],significantly reduced
same,MMP9 transcripts,COPD HBEC ALI cultures [3]; [5],significantly reduced
same,MUC5AC mRNA,COPD HBEC ALI cultures [3]; higher concentrations of TNF,no significant effect
same,MUC5B mRNA,COPD HBEC ALI cultures [3]; higher concentrations of TNF,no significant effect
same,MUC5AC mRNA,COPD HBEC ALI cultures [3]; [6],reduced baseline production
same,MUC5B mRNA,COPD HBEC ALI cultures [3]; [6],reduced baseline production
same,CCL2 protein induction in basolateral supernatant,COPD HBEC ALI cultures [4],reduced
same,CXCL10 protein induction in basolateral supernatant,COPD HBEC ALI cultures [4],reduced
same,IL-6 protein induction in basolateral supernatant,COPD HBEC ALI cultures [4],reduced
same,IC50,HDAC6,< 0.01 µM
